Experimental data reported in patent US20150267232A1, “IN VIVO AND IN VITRO CARBENE INSERTION AND NITRENE TRANSFER REACTIONS CATALYZED BY HEME ENZYMES” (California Institute of Technology, priority 2012, published 2015).
Several values for one entry are separate records, joined by “and”; a condition that tells them apart may be missing. Equal entries are not always repeated.

How the values were obtained:
[1] = Intramolecular carbene C—H insertion, substrate 4.1a; format: biochemical
[2] = P450/hemin reactions with azide 5 under anaerobic conditions (C—H amination); format: biochemical
Description: Benzosultam 6, arylsulfonamide 7 (*), and dimer 12 (#) are defined in FIG. 10. […] For instance, B1SYN (e.g., P450BM3 with 23 amino acid substitutions) catalyzed over 30 TTN for form the benzosultam.
Small-Scale Amination Reactions Under Anaerobic Conditions. […]

[3] = P450BM3 compilation plate screen (GC, cyclopropane peaks); format: biochemical; conditions: P450BM3 variants
[4] = Whole-cell C—H amination of azide 1; format: cell-based, E. coli BL21(DE3); conditions: intact E. coli cells; for Yield sulfonamide (%) / Yield sultam (%): OD600=30, 2 mM azide 1, 24 hours; for Yield sulfonamide (%) / Yield sultam (%) / TTN: anaerobic; for TTN: added glucose; for % ee: (S − R)/(S + R)
Description: Reaction conditions were as follows: 2 mM azide 1, 25 mM glucose, E. coli BL21(DE3) cells in M9-N minimal medium (OD600=30), 2.5% DMSO, oxygen depletion system (100 U ml^−1 glucose oxidase, 1400 U ml^−1 catalase) reacted for 24 hours under anaerobic conditions at 298 K. Yields determined by HPLC quantification.
(§1) Whole cell reactions used E. coli BL21(DE3) cells containing P450 or P411 catalysts, which were expressed and prepared as described elsewhere (Coelho, P. S. et al., Highly efficient carbene transfer to olefins catalyzed in vivo. Submitted (2013)). Following expression, cells were resuspended to an OD600 of 30 in M9 salts lacking NH4Cl (M9-N), and then degassed by sparging with argon in a sealed 6 mL crimp vial for at least 0.5 h. Separately, glucose (250 mM dissolved in 1×M9-N, 40 μL, or multiples thereof) was degassed by sparging with argon for at least five minutes. The oxygen quenching mixture was added to sealed 2 mL crimp vials containing stir bars and the headspace of the vials was purged with argon for five minutes at which time glucose, and then cells were added by syringe. Substrate (80 mM arylsulfonyl azide, 10 uL in DMSO) was added via syringe, and the reactions were stirred at room temperature for 24 h under positive argon pressure.
as §1, with “E.” for “Whole cell reactions used E.”, “catalysts” for “catalysts, which”, “Coelho,” for “(Coelho,”, “μL” for “uL”, “pressure. Reactions were quenched in a manner identical to reactions containing purified enzymes as described above. For chiral HPLC, the reactions were extracted and purified in an identical manner as for reactions that employed purified enzymes. Lyophilized intact cells containing sucrose as a cryoprotectant were prepared as described elsewhere (Coelho, P. S. et al., Highly efficient carbene transfer to olefins catalyzed in vivo. Submitted (2013)). The resulting cell powder, containing expressed ABC-CIS (26 mg) were added along with a stir bar to a 2 mL crimp vial and then sealed. The headspace of the vial was degassed, oxygen quenching system (40 μL) was added via syringe, followed by degassed glucose (250 mM, 40 μL), M9-N (310 μL), and finally substrate (80 mM 1, 10 μL). Lyophilized cell reactions were stirred for 24 h at room temperature, then quenched and analyzed as described above. […]” for “pressure.”
The preparative reaction was scaled up proportionally from small-scale reactions. E. coli BL21 cells containing ABC-CIS (OD600 30, 90 mL in M9-N) were sparged with argon for 45 minutes in a round bottom flask (250 mL) containing a stir bar. Separately, glucose solution (250 mM, 11.6 mL) was sparged with argon in a conical flask. The oxygen quenching mixture (10×, 11.6 mL) was degassed in a conical flask that was placed under high vacuum until slight foaming occurred (1-2 s) and then back-filled with argon; this sequence was repeated several times. Sparged glucose solution was then added to the anaerobic cell suspension via syringe, followed by the oxygen quenching system. Finally, substrate 1 (80 mM, 2.9 mL DMSO) was added dropwise via syringe, and the reaction was stirred for 24 h at room temperature. To quench the reaction, dilute HCl (3 M, 8.7 mL) and acetonitrile (125 mL) were added. […]

[5] = cat. loading 1 mol %, reductant None

hemin
Yield % ([1]; 10 mM 4.1a, 5% hemin, 10 mM Na2S2O4, product 4.2a): 0%
lactone formation via C—H bond insertion ([1]; substrates 4.1a and 4.1b, 10 μM variant or hemin at 5% catalyst loading, 16 h): not catalyzed
TTN arylsulfonamide 7 ([2]; 1 mol %, 2 mM NADPH): 1
TTN benzosultam 6 ([2]; 1 mol %, 2 mM NADPH): 0
arylsulfonamide 7 (% yield) ([2]; 1 mol %, 2 mM NADPH): (1) %
TTN arylsulfonamide 7 ([2]; 1 mol %, 2 mM Na2S2O4): 5
TTN benzosultam 6 ([2]; 1 mol %, 2 mM Na2S2O4): 0
arylsulfonamide 7 (% yield) ([2]; 1 mol %, 2 mM Na2S2O4): (5) %
TTN arylsulfonamide 7 ([2]; 1 mol %, 10 mM Na2S2O4): 58
TTN benzosultam 6 ([2]; 1 mol %, 10 mM Na2S2O4): 0
arylsulfonamide 7 (% yield) ([2]; 1 mol %, 10 mM Na2S2O4): (58) %
TTN arylsulfonamide 7 ([2]; 10 mol %, 2 mM Na2S2O4): 1
TTN benzosultam 6 ([2]; 10 mol %, 2 mM Na2S2O4): 0
arylsulfonamide 7 (% yield) ([2]; 10 mol %, 2 mM Na2S2O4): (10) %
TTN arylsulfonamide 7 ([2]; 10 mol %, 10 mM Na2S2O4): 6
TTN benzosultam 6 ([2]; 10 mol %, 10 mM Na2S2O4): 0
arylsulfonamide 7 (% yield) ([2]; 10 mol %, 10 mM Na2S2O4): (60) %
TTN arylsulfonamide 7 [2, 5]: 0
TTN benzosultam 6 [2, 5]: 0

B1: P450BM3: wild-type cytochrome P450BM3 from Bacillus megaterium (SEQ ID NO: 1) (protein, listed as Bacillus megaterium)
chain: TIKEMPQPKTFGELKNLPLLNTDKPVQALMKIADELGEIFKFEAPGRVTRYLSSQRLIKEACDESRFDKNLSQALKFVRDFAGDGLFTSWTHEKNWKKAHNILLPSFSQQAMKGYHAMMVDIAVQLVQKWERLNADEHIEVPEDMTRLTLDTIGLCGFNYRFNSFYRDQPHPFITSMVRALDEAMNKLQRANPDDPAYDENKRQFQEDIKVMNDLVDKIIADRKASGEQSDDLLTHMLNGKDPETGEPLDDENIRYQIITFLIAGHETTSGLLSFALYFLVKNPHVLQKAAEEAARVLVDPVPSYKQVKQLKYVGMVLNEALRLWPTAPAFSLYAKEDTVLGGEYPLEKGDELMVLIPQLHRDKTIWGDDVEEFRPERFENPSAIPQHAFKPFGNGQRACIGQQFALHEATLVLGMMLKHFDFEDHTNYELDIKETLTLKPEGFVVKAKSKKIPLGGIPSPSTEQSAKKVRKKAENAHNTPLLVLYGSNMGTAEGTARDLADIAMSKGFAPQVATLDSHAGNLPREGAVLIVTASYNGHPPDNAKQFVDWLDQASADEVKGVRYSVFGCGDKNWATTYQKVPAFIDETLAAKGAENIADRGEADASDDFEGTYEEWREHMWSDVAAYFNLDIENSEDNKSTLSLQFVDSAADMPLAKMHGAFSTNVVASKELQQPGSARSTRHLEIELPKEASYQEGDHLGVIPRNYEGIVNRVTARFGLDASQQIRLEAEEEKLAHLPLAKTVSVEELLQYVELQDPVTRTQLRAMAAKTVCPPHKVELEALLEKQAYKEQVLAKRLTMLELLEKYPACEMKFSEFIALLPSIRPRYYSISSSPRVDEKQASITVSVVSGEAWSGYGEYKGIASNYLAELQEGDTITCFISTPQSEFTLPKDPETPLIMVGPGTGVAPFRGFVQARKQLKEQGQSLGEAHLYFGCRSPHEDYLYQEELENAQSEGIITLHTAFSRMPNQPKTYVQHVMEQDGKKLIELLDQGAHFYICGDGSQMAPAVEATLMKSYADVHQVSEADARLWLQQLEEKGRYAKDVWAG
modifications: cytochrome P450NADPH-P-450 reductase precursor, cytochrome P450 (BM3), CYP102A1
ee (cis) ([3]; (R,S)-(S,R), chiral β-CDX GC): 7
de ([3]; diastereomeric excess = ([cis] − [trans])/([cis] + [trans])): −81
Absolute activity ([3]; sum of the area of the cyclopropane peaks over the area of the internal standard): 0.00224
Yield sulfonamide (%) [4]: 33%
Yield sultam (%) [4]: 0.5%
TTN [4]: 5.1

B2: ABC-T268A: P450BM3 variant: T268A, C400S (protein, listed as Bacillus megaterium)
chain: TIKEMPQPKTFGELKNLPLLNTDKPVQALMKIADELGEIFKFEAPGRVTRYLSSQRLIKEACDESRFDKNLSQALKFVRDFAGDGLFTSWTHEKNWKKAHNILLPSFSQQAMKGYHAMMVDIAVQLVQKWERLNADEHIEVPEDMTRLTLDTIGLCGFNYRFNSFYRDQPHPFITSMVRALDEAMNKLQRANPDDPAYDENKRQFQEDIKVMNDLVDKIIADRKASGEQSDDLLTHMLNGKDPETGEPLDDENIRYQIITFLIAGHEATSGLLSFALYFLVKNPHVLQKAAEEAARVLVDPVPSYKQVKQLKYVGMVLNEALRLWPTAPAFSLYAKEDTVLGGEYPLEKGDELMVLIPQLHRDKTIWGDDVEEFRPERFENPSAIPQHAFKPFGNGQRASIGQQFALHEATLVLGMMLKHFDFEDHTNYELDIKETLTLKPEGFVVKAKSKKIPLGGIPSPSTEQSAKKVRKKAENAHNTPLLVLYGSNMGTAEGTARDLADIAMSKGFAPQVATLDSHAGNLPREGAVLIVTASYNGHPPDNAKQFVDWLDQASADEVKGVRYSVFGCGDKNWATTYQKVPAFIDETLAAKGAENIADRGEADASDDFEGTYEEWREHMWSDVAAYFNLDIENSEDNKSTLSLQFVDSAADMPLAKMHGAFSTNVVASKELQQPGSARSTRHLEIELPKEASYQEGDHLGVIPRNYEGIVNRVTARFGLDASQQIRLEAEEEKLAHLPLAKTVSVEELLQYVELQDPVTRTQLRAMAAKTVCPPHKVELEALLEKQAYKEQVLAKRLTMLELLEKYPACEMKFSEFIALLPSIRPRYYSISSSPRVDEKQASITVSVVSGEAWSGYGEYKGIASNYLAELQEGDTITCFISTPQSEFTLPKDPETPLIMVGPGTGVAPFRGFVQARKQLKEQGQSLGEAHLYFGCRSPHEDYLYQEELENAQSEGIITLHTAFSRMPNQPKTYVQHVMEQDGKKLIELLDQGAHFYICGDGSQMAPAVEATLMKSYADVHQVSEADARLWLQQLEEKGRYAKDVWAG
modifications: cytochrome P450NADPH-P-450 reductase precursor, cytochrome P450 (BM3), CYP102A1
notes: P450BM3 variant: T268A, C400S
Yield sulfonamide (%) [4]: 45%
Yield sultam (%) [4]: 30%
TTN [4]: 245 and 250
% ee [4]: 89%

B3: BM3-T268A: P450BM3 variant: T268A (protein, listed as Bacillus megaterium)
chain: TIKEMPQPKTFGELKNLPLLNTDKPVQALMKIADELGEIFKFEAPGRVTRYLSSQRLIKEACDESRFDKNLSQALKFVRDFAGDGLFTSWTHEKNWKKAHNILLPSFSQQAMKGYHAMMVDIAVQLVQKWERLNADEHIEVPEDMTRLTLDTIGLCGFNYRFNSFYRDQPHPFITSMVRALDEAMNKLQRANPDDPAYDENKRQFQEDIKVMNDLVDKIIADRKASGEQSDDLLTHMLNGKDPETGEPLDDENIRYQIITFLIAGHEATSGLLSFALYFLVKNPHVLQKAAEEAARVLVDPVPSYKQVKQLKYVGMVLNEALRLWPTAPAFSLYAKEDTVLGGEYPLEKGDELMVLIPQLHRDKTIWGDDVEEFRPERFENPSAIPQHAFKPFGNGQRACIGQQFALHEATLVLGMMLKHFDFEDHTNYELDIKETLTLKPEGFVVKAKSKKIPLGGIPSPSTEQSAKKVRKKAENAHNTPLLVLYGSNMGTAEGTARDLADIAMSKGFAPQVATLDSHAGNLPREGAVLIVTASYNGHPPDNAKQFVDWLDQASADEVKGVRYSVFGCGDKNWATTYQKVPAFIDETLAAKGAENIADRGEADASDDFEGTYEEWREHMWSDVAAYFNLDIENSEDNKSTLSLQFVDSAADMPLAKMHGAFSTNVVASKELQQPGSARSTRHLEIELPKEASYQEGDHLGVIPRNYEGIVNRVTARFGLDASQQIRLEAEEEKLAHLPLAKTVSVEELLQYVELQDPVTRTQLRAMAAKTVCPPHKVELEALLEKQAYKEQVLAKRLTMLELLEKYPACEMKFSEFIALLPSIRPRYYSISSSPRVDEKQASITVSVVSGEAWSGYGEYKGIASNYLAELQEGDTITCFISTPQSEFTLPKDPETPLIMVGPGTGVAPFRGFVQARKQLKEQGQSLGEAHLYFGCRSPHEDYLYQEELENAQSEGIITLHTAFSRMPNQPKTYVQHVMEQDGKKLIELLDQGAHFYICGDGSQMAPAVEATLMKSYADVHQVSEADARLWLQQLEEKGRYAKDVWAG
modifications: cytochrome P450NADPH-P-450 reductase precursor, cytochrome P450 (BM3), CYP102A1
Yield sulfonamide (%) [4]: 51%
Yield sultam (%) [4]: 7.8%
TTN [4]: 26
% ee [4]: 84%
